Experimental data published in US11708352B2, “Anti-cancer compounds” (THE REGENTS OF THE UNIVERSITY OF CALIFORNIA, priority 2015, dated 2023).

Legend:
PARP1 = biological target: T1, PARP1 (Homo sapiens, UniProt P09874); test: PARP enzymatic activity inhibition (Trevigen HT Universal PARP Assay Kit); assay type: biochemical
T1 construct: purchased Trevigen 4677-096-K
Method: PARP Enzymatic Activity Inhibition: Determination of IC50 Values for Selected Compounds (Data in FIG. 1)
(§1) The half maximal inhibitory concentration (IC50) with respect to PARP inhibition was determined for each test compound by using Trevigen's HT Universal PARP Assay Kit, according to the manufacturer's protocol (Cat #4677-096-K, Gaithersburg, Md.). This assay measures the incorporation of biotinylated poly(ADP-ribose) onto histone proteins in a 96-well strip well format. This assay is ideal for the determination of IC50 values of known or suspected PARP inhibitors. Briefly, stock solutions of each test compound were prepared in DMSO. Histone strip wells were incubated for 30 minutes at room temperature with 50 μl/well of 1×PARP Buffer to rehydrate the histones. Serial dilutions of either test compound were added to appropriate wells. Diluted PARP enzyme (0.5 Unit/well) was then added to the wells containing compounds, and incubated for 10 minutes at room temperature. Subsequently, 25 μl of 1×PARP Cocktail, containing activated DNA, was distributed into each well. Three types of control wells were also analyzed; i. A negative control without PARP was prepared to determine background absorbance. ii. An activity control for PARP Inhibitor Study: 0.5 Unit/well PARP-HSA without inhibitors. These wells provided the 100% activity reference point. iii. And a PARP Standard Curve: Serial dilution of the PARP-HAS standard were prepared in cold microtubes with 1×PARP Buffer such that the total activity is 1 Unit/25 μl, 0.5 Units/25 μl, 0.25 Units/25 μl, 0.1 Units/25 μl, 0.05 Units/25 μl, 0.025 Units/25 and 0.01 Units/25 μl. 25 μl of each standard was added to triplicate wells. Following a 60 minutes incubation at room temperature, the strip wells were washed twice with 1×PBS+0.1% Triton X-100, and twice with 1×PBS. For activity detection, 50 μl per well of diluted Strep-HRP was added, and then incubated at room temperature for 60 minutes. Subsequently, 50 μl per well of pre-warmed TACS-Sapphire™ colorimetric substrate was added followed by a 15 minutes incubation, in the dark, at room temperature. The reactions were then stopped by adding 50 μl per well of 0.2M HCl or 5% Phosphoric Acid and read the absorbance at 450 nm.
The IC50 values were determined by performing non-linear regression analysis fitting velocities and the logarithm of inhibitor concentrations to a sigmoidal dose response with a variable slope model using the GraphPad Prism 6.0 software.

PARP2 = PARP2 (Homo sapiens, UniProt Q9UGN5); test: PARP enzymatic activity inhibition, PARP2 column; assay type: biochemical
Method: as §1, with “And a PARP Standard Curve: Serial dilution of the PARP-HAS standard were prepared in cold microtubes with 1×PARP Buffer such that the total activity is 1 Unit/25 μl, 0.5 Units/25 μl, 0.25 Units/25 μl, 0.1 Units/25 μl, 0.05 Units/25 μl, 0.025 Units/25 and 0.01 Units/25 μl. 25 μl of each standard was added to triplicate wells. Following a 60 minutes incubation at room temperature, the strip wells were washed twice with 1×PBS+0.1% Triton X-100, and twice with 1×PBS. For activity detection, 50 μl per well of diluted Strep-HRP was added, and then incubated at room temperature for 60 minutes. Subsequently, 50 μl per well of pre-warmed TACS-Sapphire™ colorimetric substrate was added followed by a 15 minutes incubation, in the dark, at room temperature.” left out

ABL1 = ABL1 (Homo sapiens, UniProt P00519); test: ABL kinase assay (Z'-LYTE biochemical kinase profiling); conditions: ATP 10 μM final
Method: ABL Kinase Assays (Data in FIG. 1)
The direct inhibitory effect of the test compounds on the ABL kinases activity was assessed using the Z′-LYTE biochemical kinase profiling assays (SelectScreen Kinase Profiling assays, Life Technologies). The Z′-LYTE biochemical assay employs a fluorescence-based, coupled-enzyme format and is based on the differential sensitivity of phosphorylated and non-phosphorylated peptides to proteolytic cleavage. The peptide substrate is labeled with two fluorophores (one at each end) that make up a FRET pair. In the primary reaction, the kinase transfers the gamma-phosphate of ATP to a single tyrosine, serine or threonine residue in a synthetic FRET-peptide. In the secondary reaction, a site-specific protease recognizes and cleaves non-phosphorylated FRET-peptides. Phosphorylation of FRET-peptides suppresses cleavage by the Development Reagent. Cleavage disrupts FRET between the donor and acceptor fluorophores on the FRET-peptide, whereas uncleaved, phosphorylated FRET-peptides maintain FRET. The extent of phosphorylation of the FRET-peptide can be calculated from the Emission Ratio between cleaved and uncleaved FRET-peptides. The Emission Ratio will remain low if the FRET-peptide is phosphorylated (i.e., no kinase inhibition) and will be high if the FRET-peptide is non-phosphorylated (i.e., kinase inhibition).
Using the above described assay, The Test Compounds were screened in 1% DMSO (final) in the well. 10 point titrations, 3-fold serial dilutions were conducted. Briefly, in a black 384-well plate serial dilutions of test compound or 100 nL 100× were mixed with kinase buffer peptide/Kinase Mixture and ATP Solution (10 μM final). After one hour Kinase Reaction incubation at room temperature, the development Reagent Solution was added. Subsequently, the fluorescence signals were measured using a fluorescence plate reader. Data were analyzed and the IC50 were calculated with XLfit graphing software using the sigmoidal dose-response model.

bovine brain tubulin = test: Tubulin polymerization assay (Cytoskeleton kit BK011P); assay type: biochemical; conditions: % Inhibition versus control; compound concentration of 4 μM
Excerpt: Tubulin Polymerization Assay (Data in FIG. 1)
The high-throughput screening-tubulin polymerization assay kit (Cytoskeleton, Cat. #BK011P) is an economical one step procedure for determining the effects of drugs or proteins on tubulin polymerization. Polymerization is followed by fluorescence enhancement due to the incorporation of a fluorescent reporter into microtubules as polymerization occurs. The standard assay tubulin generates a polymerization curve representing the three phases of microtubule formation, namely nucleation, growth, and steady state equilibrium. Compounds that interact with tubulin will often alter one or more of the characteristic phases of polymerization. For example, the anti-mitotic drug paclitaxel eliminates the nucleation phase and enhances the Vmax of the growth phase. Similarly, the microtubule destabilizing drug, vinblastine (also antimitotic) causes a decrease in Vmax and a reduction in final polymer mass. Thus, one application of this assay is the identification of novel anti-mitotics.
The direct effects of the test compounds on tubulin polymerization were investigated using the abovementioned Tubulin polymerization assay kit (Cytoskeleton, Cat. #BK011P), as indicated by the manufacturer protocol. Briefly, bovine brain tubulin (400 μg/sample) in the presence of either 0.5% DMSO treated (control), 4 μM test compounds, 3 μM paclitaxel (Cytoskeleton), or 3 μM vinblastine (Cytoskeleton) was incubated in PEM buffer [80 mm PIPES, 1 mm EGTA, 1 mm MgCl2 (pH 6.8)] containing 1.0 mm GTP (G-PEM) and 15% glycerol, at 37 C. All samples (wells) contained 15% glycerol. The degree of polymerization over time was measured in a spectrophotometer (Biotek synergy HT plate reader) at 350 nm. All time points were plotted and analyzed using GraphPad Prism 6.0 software.
DMSO control was set as 0% inhibition. Positive values depict the percentage of decrease in Vmax and final polymer mass, as compared to control. Negative values are inversely correlated to degree of nucleation phase elimination and the percentage of increase of the Vmax, as compared to control.

A549 = test: Cell viability assay in solid tumor cell lines (Cell-Titer Glo), A549; assay type: cell-based; conditions: Homo sapiens, 72 hours
Method: (§2) Cell Viability Assay in Solid Tumors Cell Lines (Data in FIG. 2)
(§3) Human cancer cell lines (lung, ovarian, breast pancreatic and mesothelioma) were purchased from the ATCC. The cell lines were cultured in RPMI 1640 (Life Technologies, Carlsbad, Calif.) supplemented with 10% fetal bovine serum (FBS) and antibiotics. […] At the end of treatment, cell proliferation was determined by an intracellular adenosine triphosphate monitoring system (Cell-Titer Glo-Promega).
(§4) Inhibitory activity was evaluated comparing treated versus control data using the GraphPad Prism 6.0 software.

OVCAR8 = test: Cell viability assay in solid tumor cell lines (Cell-Titer Glo), OVCAR8; assay type: cell-based; conditions: Homo sapiens, OVCAR-8, 72 hours
Method: as §2, §3, §4

ABL1, sequence (P00519 whole entry): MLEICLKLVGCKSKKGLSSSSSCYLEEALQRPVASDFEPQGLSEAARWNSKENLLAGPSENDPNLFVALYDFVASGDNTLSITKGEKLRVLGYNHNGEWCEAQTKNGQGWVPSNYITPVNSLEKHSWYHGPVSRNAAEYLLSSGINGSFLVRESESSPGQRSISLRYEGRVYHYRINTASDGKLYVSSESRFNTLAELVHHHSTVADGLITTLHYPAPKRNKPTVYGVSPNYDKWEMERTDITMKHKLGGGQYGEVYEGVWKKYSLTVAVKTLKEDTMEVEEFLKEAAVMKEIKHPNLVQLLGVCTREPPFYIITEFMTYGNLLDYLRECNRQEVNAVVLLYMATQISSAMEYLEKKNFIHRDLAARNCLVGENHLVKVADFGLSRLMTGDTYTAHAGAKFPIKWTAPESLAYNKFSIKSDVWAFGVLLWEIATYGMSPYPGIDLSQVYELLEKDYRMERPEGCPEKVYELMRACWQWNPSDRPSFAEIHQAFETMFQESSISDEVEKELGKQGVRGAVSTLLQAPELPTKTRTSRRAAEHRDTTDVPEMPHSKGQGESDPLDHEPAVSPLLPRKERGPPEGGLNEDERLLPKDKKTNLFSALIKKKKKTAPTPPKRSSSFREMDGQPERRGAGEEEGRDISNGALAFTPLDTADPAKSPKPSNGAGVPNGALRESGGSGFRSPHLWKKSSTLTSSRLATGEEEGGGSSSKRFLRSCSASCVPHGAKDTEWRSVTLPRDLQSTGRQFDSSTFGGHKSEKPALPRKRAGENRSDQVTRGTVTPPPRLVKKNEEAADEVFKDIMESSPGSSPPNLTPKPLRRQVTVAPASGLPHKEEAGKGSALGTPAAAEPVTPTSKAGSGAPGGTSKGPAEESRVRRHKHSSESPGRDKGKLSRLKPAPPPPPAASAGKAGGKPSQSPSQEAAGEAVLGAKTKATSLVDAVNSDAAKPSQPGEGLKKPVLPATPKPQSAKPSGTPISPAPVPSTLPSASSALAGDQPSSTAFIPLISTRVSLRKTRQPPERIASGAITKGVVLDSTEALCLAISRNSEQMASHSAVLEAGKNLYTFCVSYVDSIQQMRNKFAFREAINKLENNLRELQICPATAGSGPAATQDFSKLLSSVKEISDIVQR
T1 sequence (P09874 whole entry): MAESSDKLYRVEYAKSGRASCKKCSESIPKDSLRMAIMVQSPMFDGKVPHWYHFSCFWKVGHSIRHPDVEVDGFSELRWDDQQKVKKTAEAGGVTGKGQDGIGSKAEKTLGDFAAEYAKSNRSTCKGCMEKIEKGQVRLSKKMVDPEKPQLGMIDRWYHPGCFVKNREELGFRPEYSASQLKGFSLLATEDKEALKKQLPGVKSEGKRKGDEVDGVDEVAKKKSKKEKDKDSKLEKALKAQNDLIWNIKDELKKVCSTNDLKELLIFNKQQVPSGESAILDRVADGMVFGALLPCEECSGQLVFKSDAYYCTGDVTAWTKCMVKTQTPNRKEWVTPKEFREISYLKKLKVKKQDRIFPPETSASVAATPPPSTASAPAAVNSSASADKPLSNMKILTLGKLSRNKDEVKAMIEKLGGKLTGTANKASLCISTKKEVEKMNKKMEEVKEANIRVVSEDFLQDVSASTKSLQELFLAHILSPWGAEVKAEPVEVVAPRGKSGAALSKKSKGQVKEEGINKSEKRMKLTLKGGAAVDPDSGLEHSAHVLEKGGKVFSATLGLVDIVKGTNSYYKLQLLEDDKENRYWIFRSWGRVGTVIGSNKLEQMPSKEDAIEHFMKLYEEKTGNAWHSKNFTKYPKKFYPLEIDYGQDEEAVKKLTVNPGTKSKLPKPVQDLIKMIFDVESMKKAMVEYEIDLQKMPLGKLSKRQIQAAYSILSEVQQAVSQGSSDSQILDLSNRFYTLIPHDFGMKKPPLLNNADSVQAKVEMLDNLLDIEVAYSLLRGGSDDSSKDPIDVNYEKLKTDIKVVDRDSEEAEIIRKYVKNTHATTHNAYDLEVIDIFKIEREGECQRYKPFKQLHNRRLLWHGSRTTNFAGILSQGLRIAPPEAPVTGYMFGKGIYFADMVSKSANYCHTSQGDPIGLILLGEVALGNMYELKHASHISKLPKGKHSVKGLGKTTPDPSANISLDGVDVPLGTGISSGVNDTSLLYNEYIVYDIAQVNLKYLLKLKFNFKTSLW
PARP2, sequence (Q9UGN5 whole entry, species assumed): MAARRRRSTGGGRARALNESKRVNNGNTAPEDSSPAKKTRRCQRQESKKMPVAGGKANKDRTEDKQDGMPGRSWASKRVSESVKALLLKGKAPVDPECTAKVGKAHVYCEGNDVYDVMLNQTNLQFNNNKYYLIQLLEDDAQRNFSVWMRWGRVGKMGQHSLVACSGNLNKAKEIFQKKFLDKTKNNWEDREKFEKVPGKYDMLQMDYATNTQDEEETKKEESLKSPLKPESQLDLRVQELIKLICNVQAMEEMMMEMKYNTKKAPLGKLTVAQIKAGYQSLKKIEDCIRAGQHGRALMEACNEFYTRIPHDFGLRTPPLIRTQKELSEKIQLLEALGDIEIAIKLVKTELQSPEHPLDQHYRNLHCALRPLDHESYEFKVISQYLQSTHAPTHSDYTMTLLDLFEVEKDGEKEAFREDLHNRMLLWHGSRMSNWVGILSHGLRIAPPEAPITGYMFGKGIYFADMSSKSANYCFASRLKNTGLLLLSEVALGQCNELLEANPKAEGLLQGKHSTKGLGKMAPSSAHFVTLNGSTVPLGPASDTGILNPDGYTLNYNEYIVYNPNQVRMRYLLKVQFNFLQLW

Row | Compound | IC50 (PARP1) | IC50 (PARP2) | IC50 (ABL1) | Tubulin Polymerization Inhibition (bovine brain tubulin) | IC50 (A549) | IC50 (OVCAR8)
1 | CCOC(=O)Nc1nc2cc(-c3n[nH]c(=O)c4ccccc34)ccc2[nH]1 [Compound No. 1, Ethyl (5-(4-oxo-3,4-dihydrophthalazin-1-yl)-1H-benzimidazol-2-yl)carbamate] | 5000 to 10000 nM | < 500 nM | < 500 nM | Y (Y = (% Inhibition versus control) ≤20%. Results with a compound concentration of 4 μM) | < 500 nM | < 500 nM
2 | COC(=O)Nc1nc2cc(-c3n[nH]c(=O)c4ccccc34)ccc2[nH]1 [Compound No. 2, Methyl (5-(4-oxo-3,4-dihydrophthalazin-1-yl)-1H-benzimidazol-2-yl)carbamate] | > 10000 nM |  | 500 to 1000 nM | X (X = (% Inhibition versus control) <20%. Results with a compound concentration of 4 μM) | 1000 to 5000 nM | 1000 to 5000 nM
3 | COCCOC(=O)Nc1nc2cc(-c3n[nH]c(=O)c4ccccc34)ccc2[nH]1 [Compound No. 3, 2-Methoxyethyl (5-(4-oxo-3,4-dihydrophthalazin-1-yl)-1H-benzimidazol-2-yl)carbamate] | 5000 to 10000 nM |  | 500 to 1000 nM | Y (Y = (% Inhibition versus control) ≤20%. Results with a compound concentration of 4 μM) | 1000 to 5000 nM | 1000 to 5000 nM
4 | CCOC(=O)Nc1nc2cc(-c3n[nH]c(=O)c4ccc(F)cc34)ccc2[nH]1 [Compound No. 9, Ethyl (5-(7-fluoro-4-oxo-3,4-dihydrophthalazin-1-yl)-1H-benzimidazol-2-yl)carbamate] | > 10000 nM |  | < 500 nM |  | < 500 nM | < 500 nM
5 | CCOC(=O)Nc1nc2cc(-c3n[nH]c(=O)c4cc(F)c(F)cc34)ccc2[nH]1 [Compound No. 11, Ethyl (5-(6,7-difluoro-4-oxo-3,4-dihydrophthalazin-1-yl)-1H-benzimidazol-2-yl)carbamate] | > 10000 nM |  | < 500 nM |  | < 500 nM | < 500 nM
6 | CCOC(=O)Nc1nc2cc(-c3n[nH]c(=O)c4cccc(Cl)c34)ccc2[nH]1 [Compound No. 20, Ethyl (5-(8-chloro-4-oxo-3,4-dihydrophthalazin-1-yl)-1H-benzimidazol-2-yl)carbamate] | > 10000 nM |  | 500 to 1000 nM |  | 1000 to 5000 nM | 500 to 1000 nM
7 | CCOC(=O)Nc1nc2cc(-c3n[nH]c(=O)c4ccc(Cl)cc34)ccc2[nH]1 [Compound No. 21, Ethyl (5-(7-chloro-4-oxo-3,4-dihydrophthalazin-1-yl)-1H-benzimidazol-2-yl)carbamate] | > 10000 nM |  | < 500 nM |  | 500 to 1000 nM | 500 to 1000 nM
8 | CCOC(=O)Nc1nc2cc(-c3n[nH]c(=O)c4cc(Cl)c(Cl)cc34)ccc2[nH]1 [Compound No. 23, Ethyl (5-(6,7-dichloro-4-oxo-3,4-dihydrophthalazin-1-yl)-1H-benzimidazol-2-yl)carbamate] | 1000 to 5000 nM |  | < 500 nM |  | 500 to 1000 nM | < 500 nM
9 | CCNC(=O)Nc1nc2cc(-c3n[nH]c(=O)c4ccccc34)ccc2[nH]1 [Compound No. 80, 1-Ethyl-3-(5-(4-oxo-3,4-dihydrophthalazin-1-yl)-1H-benzimidazol-2-yl)urea] | > 10000 nM |  | < 500 nM |  | 1000 to 5000 nM | 1000 to 5000 nM
10 | CCCC(=O)Nc1nc2cc(-c3n[nH]c(=O)c4ccccc34)ccc2[nH]1 [Compound No. 86, N-(5-(4-oxo-3,4-dihydrophthalazin-1-yl)-1H-benzimidazol-2-yl)butyramide] | 5000 to 10000 nM |  | < 500 nM |  | < 500 nM | < 500 nM
11 | CCOC(=O)Nc1nc2cc(-c3n[nH]c(=O)c4ccccc34)cc(Cl)c2[nH]1 [Compound No. 135, Ethyl (7-chloro-5-(4-oxo-3,4-dihydrophthalazin-1-yl)-1H-benzimidazol-2-yl)carbamate] | 1000 to 5000 nM |  | < 500 nM |  | < 500 nM | < 500 nM
12 | CCCC(=O)Nc1nc2cc(-c3n[nH]c(=O)c4ccccc34)cc(Cl)c2[nH]1 [Compound No. 139, N-(7-chloro-5-(4-oxo-3,4-dihydrophthalazin-1-yl)-1H-benzimidazol-2-yl)butyramide] |  |  | < 500 nM |  | < 500 nM | < 500 nM
13 | CCOC(=O)Nc1nc2cc(-c3n[nH]c(=O)c4ccccc34)cc(Br)c2[nH]1 [Compound No. 140, Ethyl (7-bromo-5-(4-oxo-3,4-dihydrophthalazin-1-yl)-1H-benzimidazol-2-yl)carbamate] | 5000 to 10000 nM |  | < 500 nM |  | < 500 nM | < 500 nM
14 | CCOC(=O)Nc1nc2cc(-c3n[nH]c(=O)c4ccccc34)cc(C)c2[nH]1 [Compound No. 145, Ethyl (7-methyl-5-(4-oxo-3,4-dihydrophthalazin-1-yl)-1H-benzimidazol-2-yl)carbamate] | > 10000 nM |  | 5000 to 10000 nM |  | < 500 nM | < 500 nM
